According to US12414566B2, “Safener containing herbicidal oil dispersion” (ARYSTA LIFESCIENCE INC, priority 2017, dated 2025):
Where two headings read alike, the source gives them in different places.

Test: Chemical stability in butyl benzoate
Format: physicochemical

Row | SMILES | chemical stability in the butyl benzoate | chemical stability in the butyl benzoate (room temperature or accelerated temperature)
1 | COc1nn(C(=O)[N-]S(=O)(=O)c2ccccc2OC(F)(F)F)c(=O)n1C.[Na+] [Flucarbazone sodium] | chemically stable | 
2 | CC(Oc1ccc(Oc2nc3ccc(Cl)cc3o2)cc1)C(=O)O (centres unmarked) [fenoxaprop] |  | chemically stable
